Experimental data reported in patent publication US20230057568A1, “COMPOUNDS FOR TREATING FAMILIAL DYSAUTONOMIA” (PTC THERAPEUTICS, INC., priority 2019, published 2023).

Tested on: Elongator complex protein 1 (ELP1, also referred to as IKBKAP)
Assay: IKBKAP-HTRF Assay
Type: cell-based, human
Settings: FD patient-derived fibroblasts GM04589, 48 hours incubation; for EC2x for IKBKAP protein expression (concentration producing two times the amount of IKBKAP protein vs DMSO vehicle control): 7-point concentration curve; for MFI (maximum fold increase in IKBKAP protein abundance relative to the vehicle control): HTRF
Protocol: The assay is used for the quantitative determination of Elongator complex protein 1 (ELP1, also referred to as IKBKAP) concentration in cell lysates using the HTRF® (Homogeneous Time-Resolved Fluorescence) technology. IKBKAP is detected in a sandwich HTRF assay by use of an anti-IKAP antibody labeled with a donor and an anti-IKAP antibody labeled with an acceptor.
Cells were thawed and incubated in DMEM-10% FBS for 72 hours. Cells were trypsinized, counted, and re-suspended to a concentration of 50,000 cells/mL in DMEM-10% FBS. A 199 μL, aliquot of the cell suspensions were plated at 10,000 cells per well in a 96 well microtiter plate and incubated for 3 to 5 hours. […] Test compounds were serially diluted 3.16-fold in 100% DMSO to generate a 7-point concentration curve. A 1 μL aliquot of 200× compound solution was transferred to cell-containing wells, and cells were incubated for 48 hours in a cell culture incubator (37° C., 5% CO2, 100% relative humidity). Triplicate samples were set up for each compound concentration. After 48 hours, the supernatant was removed from the cells and 50 μL of the 1× LB4 lysis buffer, containing protease inhibitors, was added to the cells and incubated with shaking at room temperature for 1 hour. A 36 μL aliquot of this lysate was subsequently transferred to the 384-well plate containing 4 μL of the antibody solution (1:50 dilution of anti IKAP d2 and anti-IKAP K(9+8) in detection buffer). The 384-well plate was then centrifuged for 1 minute to bring the solutions to the bottom of the plate and incubated overnight at 4° C. Fluorescence for each well of the plate at 665 nm and 620 nm was measured was on the EnVision plate reader (Perkin Elmer). The AF for each sample is calculated by: […]
wherein Signal is the normalized fluorescence for each sample well and Blank is the average normalized average fluorescence for the Blank control wells.
The maximum fold increase (MFI) in IKBKAP protein abundance for compounds of Formula (I) or a form thereof relative to the vehicle control are provided in Table 1. MFI was calculated by dividing the AF value for each sample well by the sample AF for the vehicle control wells.
The EC2× for IKBKAP protein expression obtained from the 7-point concentration curve generated for each test compound according to the protocol in Biological Example 1 are also provided in Table 1. The term “EC2× for IKBKAP protein expression” is defined as the concentration of test compound that is effective in producing two times the amount of IKBKAP protein in a FD patient cell compared to the amount produced from the DMSO vehicle control.

Compound | EC2x for IKBKAP protein expression (concentration producing two times the amount of IKBKAP protein vs DMSO vehicle control) | MFI (maximum fold increase in IKBKAP protein abundance relative to the vehicle control)
CC[C@H](N)Cc1cc2nc(Cl)nc(NCc3cccs3)c2s1 [Cpd 10, 6-[(2S)-2-aminobutyl]-2-chloro-N-[(thiophen-2-yl)methyl]thieno[3,2-d]pyrimidin-4-amine] | *** (between >0.02 μM and ≤0.5 μM) | **** (between >3.9 and <4.9)
Cc1c(C[C@H](C)N)sc2c(NCc3ccco3)nc(Br)nc12 [Cpd 38, 6-[(2S)-2-aminopropyl]-2-bromo-N-[(furan-2-yl)methyl]-7-methylthieno[3,2-d]pyrimidin-4-amine] | ***** (<0.005 μM) | ***** (>4.9)
Cc1csc2c(NCc3ccncc3)nc(Cl)nc12 [Cpd 23, 2-chloro-7-methyl-N-[(pyridin-4-yl)methyl]thieno[3,2-d]pyrimidin-4-amine] | *** (between >0.02 μM and ≤0.5 μM) | ***** (>4.9)
CC[C@H](N)Cc1sc2c(NCc3ccncc3F)nc(Cl)nc2c1C [Cpd 53, 6-[(2S)-2-aminobutyl]-2-chloro-N-[(3-fluoropyridin-4-yl)methyl]-7-methylthieno[3,2-d]pyrimidin-4-amine] | ***** (<0.005 μM) | ***** (>4.9)
C[C@H](N)Cc1cc2nc(Cl)nc(NCc3ccncc3)c2s1 [Cpd 9, 6-[(2S)-2-aminopropyl]-2-chloro-N-[(pyridin-4-yl)methyl]thieno[3,2-d]pyrimidin-4-amine] | **** (between >0.005 μM and ≤0.02 μM) | ***** (>4.9)
Cc1c(C[C@H](C)N)sc2c(NCc3ccno3)nc(Cl)nc12 [Cpd 39, 6-[(2S)-2-aminopropyl]-2-chloro-7-methyl-N-[(1,2-oxazol-5-yl)methyl]thieno[3,2-d]pyrimidin-4-amine] | *** (between >0.02 μM and ≤0.5 μM) | ***** (>4.9)
CC[C@H](N)Cc1sc2c(NCc3ccncn3)nc(Cl)nc2c1C [Cpd 89, 6-[(2S)-2-aminobutyl]-2-chloro-7-methyl-N-[(pyrimidin-4-yl)methyl]thieno[3,2-d]pyrimidin-4-amine] | ***** (<0.005 μM) | ***** (>4.9)
Cc1c(CCCO)sc2c(NCc3ccco3)nc(Cl)nc12 [Cpd 63, 3-(2-chloro-4-{[(furan-2-yl)methyl]amino}-7-methylthieno[3,2-d]pyrimidin-6-yl)propan-l-ol] | * (EC2×>1 μM) | * (MFI<1.9)
Cc1c(C[C@H](C)N)sc2c(NCc3ccc(F)s3)nc(Cl)nc12 [Cpd 33, 6-[(2S)-2-aminopropyl]-2-chloro-N-[(5-fluorothiophen-2-yl)methyl]-7-methylthieno[3,2-d]pyrimidin-4-amine] | **** (between >0.005 μM and ≤0.02 μM) | **** (between >3.9 and <4.9)
Cc1c(C[C@H](C)N)sc2c(NCc3ccco3)nc(C3CC3)nc12 [Cpd 17, 6-[(2S)-2-aminopropyl]-2-cyclopropyl-N-[(furan-2-yl)methyl]-7-methylthieno[3,2-d]pyrimidin-4-amine] | * (EC2×>1 μM) | * (MFI<1.9)
C[C@H](N)Cc1sc2c(NCc3cccs3)nc(Cl)nc2c1Br [Cpd 82, 6-[(2S)-2-aminopropyl]-7-bromo-2-chloro-N-[(thiophen-2-yl)methyl]thieno[3,2-d]pyrimidin-4-amine] | ***** (<0.005 μM) | ***** (>4.9)
Cc1csc2c(NCc3ccco3)nc(Cl)nc12 [Cpd 18, 2-chloro-N-[(furan-2-yl)methyl]-7-methylthieno[3,2-d]pyrimidin-4-amine] | *** (between >0.02 μM and ≤0.5 μM) | ***** (>4.9)
Cc1c(C[C@@H](N)CO)sc2c(NCc3cccs3)nc(Cl)nc12 [Cpd 56, (2R)-2-amino-3-(2-chloro-7-methyl-4-{[(thiophen-2-yl)methyl]amino}thieno[3,2-d]pyrimidin-6-yl)propan-l-ol] | ***** (<0.005 μM) | ***** (>4.9)
CC[C@H](C)[C@H](N)Cc1cc2nc(Cl)nc(NCc3ccco3)c2s1 [Cpd 6, 6-[(2R,3S)-2-amino-3-methylpentyl]-2-chloro-N-[(furan-2-yl)methyl]thieno[3,2-d]pyrimidin-4-amine] | *** (between >0.02 μM and ≤0.5 μM) | *** (between >2.9 and <3.9)
COC[C@H](N)Cc1sc2c(NCc3ccco3)nc(Cl)nc2c1C [Cpd 76, 6-[(2R)-2-amino-3-methoxypropyl]-2-chloro-N-[(furan-2-yl)methyl]-7-methylthieno[3,2-d]pyrimidin-4-amine] | ***** (<0.005 μM) | ***** (>4.9)
CN[C@@H](C)Cc1sc2c(NCc3ccco3)nc(Cl)nc2c1C [Cpd 79, 2-chloro-N-[(furan-2-yl)methyl]-7-methyl-6-[(2S)-2-(methylamino)propyl]thieno[3,2-d]pyrimidin-4-amine] | *** (between >0.02 μM and ≤0.5 μM) | **** (between >3.9 and <4.9)
N[C@@H](CO)Cc1cc2nc(Cl)nc(NCc3ccco3)c2s1 [Cpd 22, (2R)-2-amino-3-(2-chloro-4-{[(furan-2-yl)methyl]amino}thieno[3,2-d]pyrimidin-6-yl)propan-l-ol] | ***** (<0.005 μM) | ***** (>4.9)
Cc1c(C[C@H](C)N)sc2c(NCc3cnco3)nc(Cl)nc12 [Cpd 75, 6-[(2S)-2-aminopropyl]-2-chloro-7-methyl-N-[(1,3-oxazol-5-yl)methyl]thieno[3,2-d]pyrimidin-4-amine] | *** (between >0.02 μM and ≤0.5 μM) | ***** (>4.9)
C[C@H](N)Cc1cc2nc(Cl)nc(NCc3ccco3)c2s1 [Cpd 3, 6-[(2S)-2-aminopropyl]-2-chloro-N-[(furan-2-yl)methyl]thieno[3,2-d]pyrimidin-4-amine] | **** (between >0.005 μM and ≤0.02 μM) | **** (between >3.9 and <4.9)
CC[C@H](N)Cc1cc2nc(Cl)nc(NCc3ccco3)c2s1 [Cpd 4, 6-[(2S)-2-aminobutyl]-2-chloro-N-[(furan-2-yl)methyl]thieno[3,2-d]pyrimidin-4-amine] | **** (between >0.005 μM and ≤0.02 μM) | **** (between >3.9 and <4.9)
Cc1ccc(CNc2nc(Cl)nc3c(C)c(C[C@H](C)N)sc23)o1 [Cpd 24, 6-[(2S)-2-aminopropyl]-2-chloro-7-methyl-N-[(5-methylfuran-2-yl)methyl]thieno[3,2-d]pyrimidin-4-amine] | *** (between >0.02 μM and ≤0.5 μM) | *** (between >2.9 and <3.9)
Clc1nc(NCc2ccncn2)c2sccc2n1 [Cpd 95, 2-chloro-N-[(pyrimidin-4-yl)methyl]thieno[3,2-d]pyrimidin-4-amine] | * (EC2×>1 μM) | *** (between >2.9 and <3.9)
